Test results reported in publication PMC11062894, “Protein-based bandpass filters for controlling cellular signaling with chemical inputs” (Nature Chemical Biology, 2023).
Values joined by “and” are separate entries in the source; they are usually repeats but may differ in a detail not shown here. Identical values can stand only once. “Also recorded” adds a separate entry of the source. Like-named read-outs stand apart in the source and are kept apart here.

Columns and labels:
[1] = target: GEMS receptors with BclXL:LD3 in HEK293T cells (Homo sapiens, UniProt Q07817); type: cell-based
Experimental: HEK293T cells were seeded in a 96-well plate 24 h before transfection. The transfection mix in each well consisted of 3 ng of constitutive human CMV promoter driven mammalian STAT3 expression vector (PhCMV-STAT3-pA), 30 ng of STAT3-induced reporter expression (OStat3-PhCMVmin-SEAP-pA) and 50 ng of expression vectors for each GEMS receptor chain (PSV40-IgK-(drughigh receptor)-EpoRm-IL-6RBm-pA and PSV40-IgK-(druglow receptor-GGGGSX3-LD3)-EpoRm-IL-6RBm-pA). For the specific drughigh receptor and druglow receptor used in the different cellular assays, they are indicated as wild type or with mutations. Then, plasmid DNA was mixed with 50 μl opti-MEM (Thermo Fisher) and 600 ng of polyethyleneimine (Polysciences, catalog no. 24765-1). […]
(§1) SEAP activity (U l^−1) in cell culture supernatants was quantified by kinetic measurements at 405 nm (1 minute per measurement for 30 cycles) of absorbance increase due to phosphatase-mediated hydrolysis of para-nitrophenyl phosphate (pNPP). […]
production of HEK293T cells. […] SEAP quantifications were performed to measure the protein production and WST-8 was used to test the cell proliferation. For cell proliferation assay, WST-8 was added after 24 hours of drug incubation, and measured its absorbance at 450 nm 4 hours later. […]

[2] = target: GEMS receptors with Bcl2:LD3 in HEK293T cells (Homo sapiens, UniProt P10415); assay: GEMS SEAP reporter assay, Bcl2:LD3 complex disruption; type: cell-based; set-up: key: SEAP activity in U/L; settings: Supp Fig 3a
Experimental: (§2) HEK293T cells were seeded in a 96-well plate 24 h before transfection. The transfection mix in each well consisted of 3 ng of constitutive human CMV promoter driven mammalian STAT3 expression vector (PhCMV-STAT3-pA), 30 ng of STAT3-induced reporter expression (OStat3-PhCMVmin-SEAP-pA) and 50 ng of expression vectors for each GEMS receptor chain (PSV40-IgK-(drughigh receptor)-EpoRm-IL-6RBm-pA and PSV40-IgK-(druglow receptor-GGGGSX3-LD3)-EpoRm-IL-6RBm-pA). For the specific drughigh receptor and druglow receptor used in the different cellular assays, they are indicated as wild type or with mutations. Then, plasmid DNA was mixed with 50 μl opti-MEM (Thermo Fisher) and 600 ng of polyethyleneimine (Polysciences, catalog no. 24765-1). For drug treatment experiments, drugs were added 12 h post-transfection and incubated with cells for 24 h before the SEAP reporter detection assay.
as §1

[3] = test system: GEMS receptors with CBPnavi (BclXL–LD3 and Bcl2), STAT3-driven SEAP in HEK293T cells; assay: GEMS SEAP reporter assay, CBPnavi; type: cell-based
Experimental: as §2, with “Then, plasmid DNA was mixed with 50 μl opti-MEM (Thermo Fisher) and 600 ng of polyethyleneimine (Polysciences, catalog no. 24765-1).” left out
Binding affinities of SPR drug competition assays were calculated using three-parameter nonlinear regression in GraphPad Prism (v.8.3.0). Representative data of cell assays are presented as individual values and mean values (bars). n = 3 refers to biological replicates. All IC50 or EC50 values of cell assays reported were calculated using four-parameter nonlinear regression ± s.d. Bandpass features of cutoff concentrations and Bandwidth90% were estimated based on the curve fitted using bell-shaped curve nonlinear regression in GraphPad Prism (v.8.3.0).

LD3 [4] = assay: SPR drug sensitivity of drug receptor variants (5 µM analyte mixed with 10 µM inhibitor, LD3 immobilized chip); type: binding; settings: for drug resistance to venetoclax (binding response to LD3): 5 µM Bcl2 or variant + 10 µM Venetoclax
Experimental: Drug IC50 values for disrupting heterodimers were measured on a Biacore 8K device. A 5 µM portion of analyte was mixed with 10 µM of BclXL or Bcl2 inhibitors according to the analyte. The mixtures of analyte and drug were injected onto the LD3 immobilized channel. […]
(§3) Bcl2high-v(2,4,5) measured by SPR. 5 μM of Bcl2 or indicated variants were mixed with 10 μM of […]

LD3 [5] = assay: SPR assay for protein–protein binding affinities (drug receptor variants over immobilized LD3); set-up: unit not given here; settings: Supp Fig 6a
Experimental: SPR measurements were performed on a Biacore 8K device (GE Healthcare). The mutual designed binder (LD3) was immobilized on a CM5 chip (GE Life Science) as a ligand with the concentration at 5 μg ml^−1 for 120 s contact time in pH 4.5 sodium acetate solutions. Serial dilutions of the analytes (BclXL or Bcl2 and their variants) in HBS-EP buffer (10 mM HEPES, 150 mM NaCl, 3 mM EDTA and 0.005% surfactant P20; GE Life Science) were flowed over the immobilized chips. After each injection cycle, surface regeneration was performed using 10 mM NaOH (pH 11.95). Affinities (Kd) were obtained using a steady binding model of the equilibrium model with Biacore 8K evaluation software. […]
Dissociation constant measurement of BclXLhigh-v(1-3) and LD3. Equilibrium curves are fitted using
BclXLhigh-v1 (purple), BclXLhigh-v2 (blue), […]
Supplementary Figure 6: Binding affinities and drug resistances of Bcl2high-v(2,4,5) assessed by
a) Measurement of dissociation constants for Bcl2high-v(2,4,5) and LD3 interactions. Equilibrium curves
as §3

[6] = test system: GEMS receptors with CBPvene (Bcl2–LD3 and Bcl2high variants), STAT3-driven SEAP in HEK293T cells; assay: GEMS SEAP reporter assay, CBPvene (Bcl2high, LD3-v and Bcl2-v variants) with venetoclax; type: cell-based; settings: Supp Fig 5c; for behavior of Bcl2high variants screened in CBP constructs: venetoclax exceeding 100 nM

GEMS receptors with Bcl2:LD3 in HEK293T cells, sequence (P10415 whole entry): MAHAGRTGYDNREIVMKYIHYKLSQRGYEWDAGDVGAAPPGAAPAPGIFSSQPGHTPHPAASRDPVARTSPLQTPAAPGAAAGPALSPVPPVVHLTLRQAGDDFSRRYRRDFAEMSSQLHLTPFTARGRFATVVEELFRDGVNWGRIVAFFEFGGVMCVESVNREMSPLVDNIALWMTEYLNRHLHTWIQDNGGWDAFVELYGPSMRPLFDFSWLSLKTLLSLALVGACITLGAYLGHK
GEMS receptors with BclXL:LD3 in HEK293T cells, sequence (Q07817 whole entry): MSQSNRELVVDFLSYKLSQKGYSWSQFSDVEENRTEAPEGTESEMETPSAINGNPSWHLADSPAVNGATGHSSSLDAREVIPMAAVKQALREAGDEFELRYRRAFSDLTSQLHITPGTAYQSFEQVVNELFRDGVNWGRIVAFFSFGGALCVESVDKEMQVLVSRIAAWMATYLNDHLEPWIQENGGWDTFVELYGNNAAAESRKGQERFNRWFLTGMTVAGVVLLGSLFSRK

| Molecule | drug resistance to venetoclax (binding response to LD3) (LD3 [4]) | SPR equilibrium binding response to LD3 (LD3 [5]; head: Venetoclax (nM) 1) | SEAP, screening of Bcl2high variants (raw) ([6]; Venetoclax 0) | SEAP, screening of Bcl2high variants, Normalized ([6]; Venetoclax 0) | SEAP, screening of Bcl2high variants (raw) ([6]; Venetoclax 0.0001) | SEAP, screening of Bcl2high variants, Normalized ([6]; Venetoclax 0.0001) | SEAP, screening of Bcl2high variants (raw) ([6]; Venetoclax 0.001) | SEAP, screening of Bcl2high variants, Normalized ([6]; Venetoclax 0.001) | SEAP, screening of Bcl2high variants (raw) ([6]; Venetoclax 0.01) | SEAP, screening of Bcl2high variants, Normalized ([6]; Venetoclax 0.01) | SEAP, screening of Bcl2high variants (raw) ([6]; Venetoclax 0.1) | SEAP, screening of Bcl2high variants, Normalized ([6]; Venetoclax 0.1) | SEAP, screening of Bcl2high variants (raw) ([6]; Venetoclax 1) | SEAP, screening of Bcl2high variants, Normalized ([6]; Venetoclax 1) | SEAP, screening of Bcl2high variants (raw) ([6]; Venetoclax 10) | SEAP, screening of Bcl2high variants, Normalized ([6]; Venetoclax 10) | SEAP, screening of Bcl2high variants (raw) ([6]; Venetoclax 100) | SEAP, screening of Bcl2high variants, Normalized ([6]; Venetoclax 100) | SEAP, screening of Bcl2high variants (raw) ([6]; Venetoclax 1000) | SEAP, screening of Bcl2high variants, Normalized ([6]; Venetoclax 1000) | also measured |
| --- | --- | --- | --- | --- | --- | --- | --- | --- | --- | --- | --- | --- | --- | --- | --- | --- | --- | --- | --- | --- | --- |
| CC1(C)CCC(c2ccc(Cl)cc2)=C(CN2CCN(c3ccc(C(=O)NS(=O)(=O)c4ccc(N[C@H](CCN5CCOCC5)CSc5ccccc5)c(S(=O)(=O)C(F)(F)F)c4)cc3)CC2)C1 [Navitoclax] |  |  |  |  |  |  |  |  |  |  |  |  |  |  |  |  |  |  |  |  | more potent activity to BclXL than to Bcl2 [1]: approximately 4.4 fold; dose response (SEAP) ([2]; Navitoclax 1 nM): 217.89 and 244.414 and 201.569; dose response (SEAP) ([2]; Navitoclax 3.18 nM): 251.97 and 247.153 and 223.02; dose response (SEAP) ([2]; Navitoclax 10 nM): 225.391 and 249.837 and 220.973; dose response (SEAP) ([2]; Navitoclax 31.8 nM): 203.543 and 185.176 and 172.987; dose response (SEAP) ([2]; Navitoclax 100 nM): 207.157 and 228.932 and 148.919; dose response (SEAP) ([2]; Navitoclax 318 nM): 189.257 and 207.554 and 159.852; dose response (SEAP) ([2]; Navitoclax 1000 nM): 160.635 and 174.477 and 98.5023; dose response (SEAP) ([2]; Navitoclax 3180 nM): 138.28 and 140.892 and 97.3043; dose response (SEAP) ([2]; Navitoclax 10000 nM): 109.056 and 131.507 and 65.8832; Dip (bell-shaped fit, best-fit value) ([3]; CBPnavi, Fig 3c): 146.8; Plateau1 (bell-shaped fit, best-fit value) ([3]; CBPnavi, Fig 3c): 13.3; Plateau2 (bell-shaped fit, best-fit value) ([3]; CBPnavi, Fig 3c): 20.77; nH1 (bell-shaped fit, best-fit value) ([3]; CBPnavi, Fig 3c): -2.607; nH2 (bell-shaped fit, best-fit value) ([3]; CBPnavi, Fig 3c): -2.347; EC50 ([3]; Homo sapiens, HEK-293T, read-out: EC50_1 (bell-shaped fit, best-fit value)): 66.5 nM; EC50 ([3]; Homo sapiens, HEK-293T, read-out: EC50_2 (bell-shaped fit, best-fit value)): 2850 nM; EC50 ([3]; Homo sapiens, HEK-293T, read-out: EC50 of the ON phase): 65 nM; IC50 ([3]; Homo sapiens, HEK-293T, read-out: IC50 of the OFF phase): 2820 nM |
| Bcl2: wild-type Bcl2, druglow receptor | completely inhibited |  |  |  |  |  |  |  |  |  |  |  |  |  |  |  |  |  |  |  |  |
| Bcl2high-v4: Bcl2 variant (G101V) | intermediate binding responses; also recorded: more resistant than Bcl2high-v2 | 2.1472 | 6.603 | 2.711 | 4.145 | 0 | 8.202 | 4.476 | 7.174 | 3.342 | 7.666 | 3.884 | 5.264 | 1.235 | 24.5053 | 22.4596 | 94.7979 | 100 | 68.7379 | 71.253 | SPR equilibrium binding response to LD3 (LD3 [5]; head: Venetoclax (nM) 3.9): 10.112; SPR equilibrium binding response to LD3 (LD3 [5]; head: Venetoclax (nM) 15.6): 33.8883; SPR equilibrium binding response to LD3 (LD3 [5]; head: Venetoclax (nM) 62.5): 70.0059; behavior of Bcl2high variants screened in CBP constructs [6]: sharp decrease |
| Bcl2high-v5: Bcl2 variant (D103Y) | intermediate binding responses | 0.849 | 2.765 | 3.49 | 2.523 | 2.743 | 3.266 | 5.042 | 2.791 | 3.572 | 1.758 | 0.3721 | 1.638 | 0 | 7.093 | 16.9022 | 33.9111 | 100 | 29.4352 | 86.1311 | SPR equilibrium binding response to LD3 (LD3 [5]; head: Venetoclax (nM) 3.9): 3.873; SPR equilibrium binding response to LD3 (LD3 [5]; head: Venetoclax (nM) 15.6): 14.2982; SPR equilibrium binding response to LD3 (LD3 [5]; head: Venetoclax (nM) 62.5): 37.6477; behavior of Bcl2high variants screened in CBP constructs [6]: sharp decrease |
| Bcl2high-v7: Bcl2 variant (D103E) |  |  | 6.691 | 0 | 7.426 | 0.7213 | 7.62 | 0.9112 | 12.5658 | 5.763 | 10.093 | 3.337 | 14.5573 | 7.717 | 26.197 | 19.1352 | 97.9682 | 89.5427 | 108.628 | 100 |  |
| BclXL: wild-type BclXL, druglow receptor |  |  |  |  |  |  |  |  |  |  |  |  |  |  |  |  |  |  |  |  | drug resistance to A-1155463 (binding response to LD3) (LD3 [4]; 5 µM BclXL or variant + 10 µM A-1155463): completely inhibited |
